From patent US7553105B1, “Method and compositions for treatment of subsurface contaminants” (Colorado School of Mines, priority 2005, dated 2009)
In brackets after ≈: the same amount, converted by molar mass. Several values for one entry are separate records, joined by “and”; a condition that tells them apart may be missing. Equal entries are not always repeated. Where two headings read alike, the source gives them in different places. Marks after values point to notes of the source that are not given here.

What was measured:
[1] = 25° C.; cited from earlier work
[2] = maximum contaminant level, USEPA; cited from earlier work
[3] = Batch screening for compatibility of surfactants/cosolvents with KMnO4; conditions: for effect of surfactant concentration on compatibility with permanganate: FIG. 1
Procedure: Seventy two surfactants were tested alone or in the presence of cosolvents to determine compatibility with KMnO4. Concentrations for each constituent corresponded to one of two remediation scenarios: (1) a relatively high wt-% of surfactants, i.e., 1-10 wt-%, is coupled with oxidants representative of conditions where a surfactant flush is conducted and followed by one or more water flushes, with high levels of surfactant remaining when the oxidant is introduced (note that this scenario could also represent co-injection of surfactant and oxidant); and (2) a relatively low wt-% of surfactant, i.e., 0.01-0.1 wt-%, is coupled with oxidants representative of conditions where a surfactant flush is conducted by water flush with low levels of surfactant remaining when the oxidant is introduced.
The two cases are representative of the range of possible concentrations that may be encountered during pre- and post-remedial agent flushing scenarios. […] Potassium permanganate concentrations of 500 mg/L to 5,000 mg/L were used in the screening tests, these concentrations being representative for both laboratory conditions and field applications.
Solutions containing surfactant alone, cosolvent alone, or mixtures of surfactant and cosolvent were used in the batch screening studies. Qualitative and quantitative criteria were used to define a compatible coupling. For example, a bright purple color provides a visual qualitative assessment regarding oxidant consumption, therefore solutions that remained bright purple with relatively few manganese dioxide solids generated throughout the 24-hour reaction period were deemed compatible.
The batch screening samples were prepared in 40 ml type A borosilicate glass vials with Teflon®-lined septa. The desired surfactant concentration (corrected for active weight percent) was weighed and dispensed into each sample vial. Thirty milliliters of a 5,000 mg/L KMnO4 solution prepared with de-ionized water was dispensed into each vial. If cosolvent was present, the desired weight percent was added to the vial on a vol/vol basis. The total sample volume was 30-ml, leaving 10-ml of headspace in the event of gas or foam generation. The vials were shaken until the solutions were well mixed.
Visual observation on each vial was made at three, twenty-four and forty-eight hours. The amount of oxidant remaining in the surfactant, or surfactant/cosolvent, solution was determined with a Hach DR/4000 Ultraviolet Spectrophotometer (UV Spec.). A 0.1 ml aliquot of sample was filtered with a 10-micron filter and dispensed into a 10-ml vial, followed by addition of 9.9 mLs of de-ionized water. The resultant solution has a permanganate dilution of less than 50 mg/L (ideal absorbance measurement range). Samples were analyzed at 525 nm for KMnO4 with final concentrations derived from a 6-point standard calibration curve.

[4] = Example 3 batch compatibility of cosolvents and surfactants with permanganate; conditions: 5,000 mg/L KMnO4; 24-48 hr observation
Procedure: Batch studies were performed to evaluate the compatibility of alcohol cosolvents and surfactants for use with oxidants during treatment of DNAPLs.

[5] = vendor data, cited from earlier work
[6] = Interfacial tension, DuNuoy ring tensiometer; conditions: 3.5 wt % Dowfax 8390 solution equilibrated with PCE, average of five measurements
[7] = literature; cited from earlier work
[8] = Density of 3.5 wt % Dowfax 8390 solution; conditions: 3.5 wt % solution, 23° C., average of five measurements
[9] = Batch surfactant sorption experiments; format: physicochemical; conditions: medium-grained laboratory sand
Source text: Adsorption isotherms of ionic surfactants onto charged sites are typically approximated using a Langmuir model (Rosen, 1989).

[10] = Solubility of PCE in surfactants, co-surfactants and electrolytes versus water alone; format: physicochemical
Procedure: Co-surfactants and electrolytes serve to further enhance the solubilization capacity of any given surfactant.
Therefore use of equilibrium values in the prediction of surfactant enhanced remediation performance may result in the underestimation of remediation times and costs.
PCE concentrations were determined using a Hewlett-Packard gas chromatograph (GC) equipped with auto-ampler and electron capture detector (ECD).

[11] = Solubility in water 20° C.; format: physicochemical; conditions: measured for this study
[12] = MnO4^− loss, 3-hour observation, 3.5 wt % surfactant + 5000 mg/L KMnO4
[13] = MnO4^− loss, 24-hour observation, 3.5 wt % surfactant + 5000 mg/L KMnO4
[14] = 3-hour observation, 3.5 wt % surfactant + 5000 mg/L KMnO4
[15] = 24-hour observation, 3.5 wt % surfactant + 5000 mg/L KMnO4

## CCCCCCCC [n-Octane]
[1]
  Solubility in water: 0.72 µg/mL (≈ 6.3 µM)

## Cc1ccccc1C [o-Xylene]
[1]
  Solubility in water: 175 µg/mL (≈ 1650 µM)

## ClC=C(Cl)Cl [Trichloroethene, trichloroethene]
[2]
  MCL: 0.005 mg/L

## c1ccc2c(c1)ccc1ccccc12 [Phenanthrene (PAH), Phenanthrene]
[1]
  Solubility in water: 6.2 µg/mL (≈ 34.8 µM)
[2]
  MCL: 0.0002 mg/L

## CC(C)=O [Acetone]
[3]
  % mass loss: 98%

## Clc1cc2c(cc1Cl)Oc1cc(Cl)c(Cl)cc1O2 [Dioxin (2,3,7,8-TCDD), 2,3,7,8-TCDD]
[1]
  Solubility in water: 1.9e-09 µg/mL (≈ 5.9e-09 µM)
[2]
  MCL: 3e-08 mg/L

## CCc1ccccc1 [Ethylbenzene]
[1]
  Solubility in water: 152 µg/mL (≈ 1430 µM)
[2]
  MCL: 0.7 mg/L

## Cc1ccc(C)cc1 [p-Xylene]
[1]
  Solubility in water: 210 µg/mL (≈ 1980 µM)
[2]
  MCL: 10 mg/L

## Clc1ccccc1 [Chlorobenzene]
[1]
  Solubility in water: 472 µg/mL (≈ 4190 µM)

## CCCCCCCC/C=C\CCCCCCCC(=O)OCCOCC(OCCO)C1OCC(OCCO)C1OCCO (centres unmarked) [Tween 80, polyoxyethylene (20) sorbitan monooleate]
[3]
  effect of surfactant concentration on compatibility with permanganate: only compatible at low residual levels with permanganate
[3]; [12]
  % mass loss: 100%
[3]; [13]
  % mass loss: 100%

## CC(C)(C)O [tert-butanol]
[3]
  % mass loss: 2% and 4%
  Average MnO4^−: 5075 mg/L and 4986 mg/L
[4]
  Relative Amount of MnO2 Solids Generated: None
  Solution Color: Dark

## c1ccccc1 [Benzene]
[2]
  MCL: 0.005 mg/L

## Cl[C@H]1[C@H](Cl)[C@@H](Cl)[C@@H](Cl)[C@H](Cl)[C@H]1Cl [Lindane (herbicide), Lindane]
[1]
  Solubility in water: 7.3 µg/mL (≈ 25.1 µM)

## CCCCCCCCCCCCc1ccc(S(=O)(=O)O)cc1 [SDBS]
[3]; [14]
  Average MnO4^−: 3442 mg/L
[3]; [15]
  Average MnO4^−: 1896 mg/L
[3]; [12]
  % mass loss: 29%
[3]; [13]
  % mass loss: 61%

## CCCCCCCCCCCCOS(=O)(=O)[O-].[Na+] [SDS, sodium dodecyl sulfate]
[3]
  compatibility with permanganate: compatible with permanganate
[3]; [14]
  Average MnO4^−: 4523 mg/L
[3]; [15]
  Average MnO4^−: 4393 mg/L
[3]; [12]
  % mass loss: 6%
[3]; [13]
  % mass loss: 20%

## Sodium hexadecyl diphenyl oxide disulfonate [Dowfax 8390]
[5]; critical micelle concentration
  CMC: 140 mg/L
[5]
  HLB: 78.6
[3]
  compatibility with permanganate: compatible with permanganate
  effect of surfactant concentration on compatibility with permanganate: not dependent on surfactant concentration
[3]; [14]
  Average MnO4^−: 4458 mg/L
[3]; [15]
  Average MnO4^−: 3980 mg/L
[3]; [12]
  % mass loss: 10%
[3]; [13]
  % mass loss: 23%
[6]
  Interfacial Tension: 8.5^c dyne/cm
[7]
  sorption to aquifer materials: low sorption to aquifer materials
[8]
  Density: 1.007^c g/cm^3
[9]
  sorption to laboratory sand: negligible
[4]
  Relative Amount of MnO2 Solids Generated: Few
  Solution Color: Dark

## CCCCCCCCCC [n-Decane]
[1]
  Solubility in water: 0.053 µg/mL (≈ 0.372 µM)

## ClC(Cl)=C(Cl)Cl [PCE, tetrachloroethene]
[10]; in 5% Dowfax + 3% AOT
  5% Dowfax + 3% AOT: PCE: 31,954 mg/L
[10]; in 5% Dowfax + 3% AOT + 3% NaBr
  5% Dowfax + 3% AOT + 3% NaBr: PCE: 107,284 mg/L
[10]; in 5% SDS + 3% AOT
  5% SDS + 3% AOT: PCE: 21,410 mg/L
[10]; in 5% SDS + 3% AOT + 3% NaBr
  5% SDS + 3% AOT + 3% NaBr: PCE: 62,700 mg/L
[10]; water only
  PCE in water only: 200 mg/L
[2]
  MCL: 0.005 mg/L
[11]
  solubility: 250 µg/mL (≈ 1510 µM)

## (C16 linear) Sodium diphenyl oxide sulfonate [Calfax 16L-35]
[3]; [14]
  Average MnO4^−: 4340 mg/L
[3]; [15]
  Average MnO4^−: 4183 mg/L
[3]; [12]
  % mass loss: 14%
[3]; [13]
  % mass loss: 15%

## c1ccc2ccccc2c1 [Napthalene (PAH), Napthalene]
[1]
  Solubility in water: 33 µg/mL (≈ 257 µM)
[2]
  MCL: 0.0002 mg/L
